Reference: patent US9914730B2, “Azaquinazoline inhibitors of Atypical protein Kinase C” (Ignyta, Inc., priority 2012, dated 2018)
Structures can show the parent of a compound that is named as a salt.

These compounds were tested against T1, full-length human PKCι (Homo sapiens, UniProt P41743) (assay: PKCι IC50 IMAP assay, full-length PKCι at 150 μM ATP). Details: read-out: IC50 in IMAP assay against full length PKCi at 150 μM ATP.
T1 construct: Recombinant, full-length human PKCι expressed in Sf21 insect cells is also commercially available; purchased; host or cells: Sf21 insect cells
T1 sequence (P41743 1-596): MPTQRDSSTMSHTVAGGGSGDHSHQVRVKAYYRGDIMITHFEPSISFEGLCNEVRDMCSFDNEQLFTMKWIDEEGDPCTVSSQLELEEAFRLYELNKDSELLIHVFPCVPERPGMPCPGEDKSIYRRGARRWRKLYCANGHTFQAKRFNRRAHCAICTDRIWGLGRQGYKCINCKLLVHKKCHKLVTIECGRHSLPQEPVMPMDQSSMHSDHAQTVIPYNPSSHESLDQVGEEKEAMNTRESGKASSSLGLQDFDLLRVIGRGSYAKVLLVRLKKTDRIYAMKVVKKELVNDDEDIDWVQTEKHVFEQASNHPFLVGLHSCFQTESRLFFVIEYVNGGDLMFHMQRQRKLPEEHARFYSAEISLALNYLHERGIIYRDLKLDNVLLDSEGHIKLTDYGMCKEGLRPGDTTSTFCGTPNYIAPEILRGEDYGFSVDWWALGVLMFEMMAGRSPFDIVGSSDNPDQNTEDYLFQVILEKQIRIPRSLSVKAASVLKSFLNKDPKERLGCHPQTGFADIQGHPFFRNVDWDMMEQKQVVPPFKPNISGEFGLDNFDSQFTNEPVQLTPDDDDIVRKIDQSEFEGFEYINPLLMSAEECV
Format: biochemical
How it was run: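 Full-length human PKCι from Sf21 cells, typically 15 pM, with 100 nM 5FAM-PKCε pseudosubstrate peptide and 150 μM ATP (5× apparent KM), 60 min at room temperature, 4% DMSO. IMAP fluorescence polarisation read-out; inhibition normalised to no-compound and no-enzyme controls, IC50 from curve fit.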
For `c1cc(-c2nc(N3CCNCC3)c3c(C4CC4)cncc3n2)cc(N[C@@H]2C[C@H]3CC[C@@H]2C3)n1` [Example 824, (1R,2R,4S)-Bicyclo[2.2.1]hept-2-yl-[4-(5-cyclopropyl-4-piperazin-1-yl-pyrido[3,4-d]pyrimidin-2-yl)-pyridin-2-yl]-amine], the IC50 was less than 100 nM.
`Cc1ccc(Cl)c(Nc2cc(-c3nc(N4CCNCC4)c4c(C5CC5)cncc4n3)ccn2)c1F` [Example 617, (6-Chloro-2-fluoro-3-methyl-phenyl)-[4-(5-cyclopropyl-4-piperazin-1-yl-pyrido[3,4-d]pyrimidin-2-yl)-pyridin-2-yl]-amine] was tested, and the IC50 was less than 100 nM.
`C=Cc1cncc2nc(-c3ccnc(Nc4c(F)cccc4F)c3)nc(N3CCNCC3)c12` [Example 2094, (2,6-Difluoro-phenyl)-[4-(4-piperazin-1-yl-5-vinyl-pyrido[3,4-d]pyrimidin-2-yl)-pyridin-2-yl]-amine] gave an IC50 of less than 100 nM.
Work on `COCCN1CCN(c2nc(-c3ccnc(Nc4ccccc4)c3)nc3cncc(C4CC4)c23)CC1` [Example 661, (4-{5-Cyclopropyl-4-[4-(2-methoxy-ethyl)-piperazin-1-yl]-pyrido[3,4-d]pyrimidin-2-yl}-pyridin-2-yl)-phenyl-amine] yielded an IC50 of 1000 to 10000 nM.
In the case of `CC(C)(C)c1cc2c(-c3nc(N4CCC(O)CC4)c4c(C5CC5)cncc4n3)ccnc2[nH]1` [Example 1247, 1-[2-(2-tert-Butyl-1H-pyrrolo[2,3-b]pyridin-4-yl)-5-cyclopropyl-pyrido[3,4-d]pyrimidin-4-yl]-piperidin-4-ol], the IC50 is reported as less than 100 nM.
For `FC(F)c1cc2c(-c3nc(N4CCNCC4)c4c(C5CC5)cncc4n3)ccnc2[nH]1` [Example 2106, 5-Cyclopropyl-2-(2-difluoromethyl-1H-pyrrolo[2,3-b]pyridin-4-yl)-4-piperazin-1-yl-pyrido[3,4-d]pyrimidine], the IC50 was less than 100 nM.
Compound `COc1cncc2nc(-c3ccnc4[nH]c(C)cc34)nc(N3CCNCC3)c12` [Example 1201, 5-Methoxy-2-(2-methyl-1H-pyrrolo[2,3-b]pyridin-4-yl)-4-piperazin-1-yl-pyrido[3,4-d]pyrimidine] has an IC50 of less than 100 nM.
`CN(c1nc(-c2ccnc(Nc3ncc(F)cc3F)c2)nc2cncc(C3CC3)c12)C1CCNCC1(C)C` (stereo not drawn) [Example 2196, {5-Cyclopropyl-2-[2-(3,5-difluoro-pyridin-2-ylamino)-pyridin-4-yl]-pyrido[3,4-d]pyrimidin-4-yl}-(3,3-dimethyl-piperidin-4-yl)-methyl-amine] gave an IC50 of less than 100 nM.
With `Fc1cccc(Nc2cc(-c3nc(N4CCNCC4)c4c(Cl)cncc4n3)ccn2)n1` [Example 253, [4-(5-Chloro-4-piperazin-1-yl-pyrido[3,4-d]pyrimidin-2-yl)-pyridin-2-yl]-(6-fluoro-pyridin-2-yl)-amine] the IC50 was less than 100 nM.
In the case of `NC(=O)C1CCN(c2nc(-c3ccnc(Nc4c(F)cccc4F)c3)nc3cncc(C4CC4)c23)CC1` [Example 656, 1-{5-Cyclopropyl-2-[2-(2,6-difluoro-phenylamino)-pyridin-4-yl]-pyrido[3,4-d]pyrimidin-4-yl}-piperidine-4-carboxylic acid amide], the IC50 is reported as 100 to 1000 nM.
`FC(F)(F)c1ccnc(Nc2cc(-c3nc(N[C@@H]4CCNC4)c4ccncc4n3)ccn2)c1` [Example 350, (R)-Pyrrolidin-3-yl-{2-[2-(4-trifluoromethyl-pyridin-2-ylamino)-pyridin-4-yl]-pyrido[3,4-d]pyrimidin-4-yl}-amine] was tested, and the IC50 was less than 100 nM.
Compound `CCc1ccc(F)c(Nc2cc(-c3nc(N4CCNCC4)c4c(C5CC5)cncc4n3)ccn2)c1` [Example 715, [4-(5-Cyclopropyl-4-piperazin-1-yl-pyrido[3,4-d]pyrimidin-2-yl)-pyridin-2-yl]-(5-ethyl-2-fluoro-phenyl)-amine] has an IC50 of less than 100 nM.
`Fc1ccc2nc(Nc3cc(-c4nc(N5CCNCC5)c5c(C6CC6)cncc5n4)ccn3)nn2c1` [Example 2039, [4-(5-Cyclopropyl-4-piperazin-1-yl-pyrido[3,4-d]pyrimidin-2-yl)-pyridin-2-yl]-(6-fluoro-[1,2,4]triazolo[1,5-a]pyridin-2-yl)-amine] was tested, and the IC50 was less than 100 nM.
With `N[C@H](CNc1nc(-c2ccncc2)nc2c(-c3cccc(-c4cccc(Cl)c4)c3)nccc12)Cc1ccccc1` [Example 106, N-[(2S)-2-amino-3-phenylpropyl]-8-[3-(3-chloro-phenyl)-phenyl]-2-(pyridin-4-yl)pyrido[3,4-d]pyrimidin-4-amine] the IC50 was 1000 to 10000 nM.
`CC1CN(c2nc(-c3ccnc(Nc4c(F)cccc4F)c3)nc3cncc(C4CC4)c23)CC(C)N1` (stereo not drawn) [Example 787, {4-[5-Cyclopropyl-4-(3,5-dimethyl-piperazin-1-yl)-pyrido[3,4-d]pyrimidin-2-yl]-pyridin-2-yl}-(2,6-difluoro-phenyl)-amine] gave an IC50 of less than 100 nM.
`c1cc(-c2nc(N3CCNCC3)c3c(C4CC4)cncc3n2)c2c3c([nH]c2n1)CCCC3` [Example 2208, 4-(5-Cyclopropyl-4-piperazin-1-yl-pyrido[3,4-d]pyrimidin-2-yl)-6,7,8,9-telrahydro-5H-pyrido[2,3-b]indole] showed an IC50 of 100 to 1000 nM.
In the case of `c1ccc2c(c1)[nH]c1nccc(-c3nc(N4CCNCC4)c4ccncc4n3)c12` [Example 2091, 4-(4-Piperazin-1-yl-pyrido[3,4-d]pyrimidin-2-yl)-9H-pyrido[2,3-b]indole], the IC50 is reported as less than 100 nM.
With `Fc1cc(C2CC2)nc(F)c1Nc1cc(-c2nc(N3CCNCC3)c3c(C4CC4)cncc3n2)ccn1` [Example 724, (6-Cyclopropyl-2,4-difluoro-pyridin-3-yl)-[4-(5-cyclopropyl-4-piperazin-1-yl-pyrido[3,4-d]pyrimidin-2-yl)-pyridin-2-yl]-amine; bis-trifluoroacetic salt] the IC50 was less than 100 nM.
In the case of `CN(C)CCNc1nc(-c2ccnc(Nc3c(F)cccc3F)c2)nc2cncc(C3CC3)c12` [Example 776, N-{5-Cyclopropyl-2-[2-(2,6-difluoro-phenylamino)-pyridin-4-yl]-pyrido[3,4-d]pyrimidin-4-yl}-N′,N′-dimethyl-ethane-1,2-diamine], the IC50 is reported as 100 to 1000 nM.
For `CNc1nc(-c2ccnc(Nc3cccc(C4CCNCC4)c3)c2)nc2cncc(OC)c12` [Example 502, {5-Methoxy-2-[2-(3-piperidin-4-yl-phenylamino)-pyridin-4-yl]-pyrido[3,4-d]pyrimidin-4-yl}-methyl-amine], the IC50 was 1000 to 10000 nM.
Work on `COc1cncc2nc(-c3ccncc3)nc(N3CCN(C)[C@@H](Cc4ccccc4)C3)c12` [Example 81, (2S)-2-benzyl-4-[5-methoxy-2-(pyridin-4-yl)pyrido[3,4-d]pyrimidin-4-yl]-1-methylpiperazine; formic acid] yielded an IC50 of 100 to 1000 nM.
With `O=C(Cc1ccccc1)Nc1cc(-c2nc(N3CCNCC3)c3c(C4CC4)cncc3n2)ccn1` [Example 612, N-[4-(5-Cyclopropyl-4-piperazin-1-yl-pyrido[3,4-d]pyrimidin-2-yl)-pyridin-2-yl]-2-phenyl-acetamide] the IC50 was less than 100 nM.
Work on `Fc1cnc2[nH]ccc2c1-c1nc(N2CCNCC2)c2c(C3CC3)cncc2n1` [Example 1226, 5-Cyclopropyl-2-(5-fluoro-1H-pyrrolo[2,3-b]pyridin-4-yl)-4-piperazin-1-yl-pyrido[3,4-d]pyrimidine] yielded an IC50 of less than 100 nM.
`COc1cncc2nc(-c3ccnc(Nc4nc(C)c(C)o4)c3)nc(N3CCNCC3)c12` [Example 203, (4,5-Dimethyl-oxazol-2-yl)-[4-(5-methoxy-4-piperazin-1-yl-pyrido[3,4-d]pyrimidin-2-yl)-pyridin-2-yl]-amine] was tested, and the IC50 was less than 100 nM.
Work on `COc1cncc2nc(-c3ccnc(Nc4nc(C(F)(F)F)co4)c3)nc(N3CCNCC3)c12` [Example 202, [4-(5-Methoxy-4-piperazin-1-yl-pyrido[3,4-d]pyrimidin-2-yl)-pyridin-2-yl]-(4-trifluoromethyl-oxazol-2-yl)-amine] yielded an IC50 of less than 100 nM.
With `COCC(C)(C)c1cc2c(-c3nc(N4CCNCC4)c4c(C5CC5)cncc4n3)ccnc2[nH]1` [Example 2108, 5-Cyclopropyl-2-[2-(2-methoxy-1,1-dimethyl-ethyl)-1H-pyrrolo[2,3-b]pyridin-4-yl]-4-piperazin-1-yl-pyrido[3,4-d]pyrimidine] the IC50 was less than 100 nM.
`COc1cncc2nc(-c3ccnc(Nc4ccccc4)c3)nc(N3CCNC(=O)C3)c12` [Example 438, 4-[5-Methoxy-2-(2-phenylamino-pyridin-4-yl)-pyrido[3,4-d]pyrimidin-4-yl]-piperazin-2-one] was tested, and the IC50 was 1000 to 10000 nM.
In the case of `NC1CCN(c2nc(-c3ccnc(Nc4c(F)cccc4F)c3)nc3cncc(C4CC4)c23)C1` (stereo not drawn) [Example 708, {4-[4-(3-Amino-pyrrolidin-1-yl)-5-cyclopropyl-pyrido[3,4-d]pyrimidin-2-yl]-pyridin-2-yl}-(2,6-difluoro-phenyl)-amine], the IC50 is reported as 100 to 1000 nM.
For `CN(c1nc(-c2ccnc(Nc3c(F)cccc3F)c2)nc2cncc(C3CC3)c12)C1CNC1` [Example 2029, Azetidin-3-yl-{5-cyclopropyl-2-[2-(2,6-difluoro-phenylamino)-pyridin-4-yl]-pyrido[3,4-d]pyrimidin-4-yl}-methyl-amine], the IC50 was less than 100 nM.
`OC1CCN(c2nc(-c3ccnc(Nc4cccc(F)n4)c3)nc3cncc(C4CC4)c23)CC1` [Example 805, 1-{5-Cyclopropyl-2-[2-(6-fluoro-pyridin-2-ylamino)-pyridin-4-yl]-pyrido[3,4-d]pyrimidin-4-yl}-piperidin-4-ol] was tested, and the IC50 was 100 to 1000 nM.
